Where two headings read alike, the source gives them in different places. Values belong to the molecule of their own block, whether it stands above or below them. No end group written: not given here.
Tests used:
[1] = tested on: thoracodorsal arteries (TDA); settings: for EC50: read-out: EC50 of agonist for TDA constriction
[2] = tested on: thoracodorsal arteries (TDA); test: ATP release from intact TDA (luciferin:luciferase); type: cell-based, mouse; settings: for ATP release from intact TDAs in response to agonist: five minutes of agonist, ARL67156 300 μmol/L
Experimental: Mouse TDAs of equal length were isolated and washed thoroughly to eliminate red blood cells. Vessels were placed in a well of a 96-well plate containing Krebs-HEPES solution supplemented with 1% BSA at 37° C. for 30 minutes to allow for degradation of any ATP released as a result of mechanical stimulation during manipulation of the vessel. For measurements performed on HEK cells: 24 hours after transfection, cells cultured in 24-well plates were cautiously washed twice with warm Krebs-HEPES-BSA and 300 μl of Krebs-HEPES-BSA was added to each well after the last wash as previously described. The plate was then kept in the incubator at 37° C. with 5% CO2 for 30 minutes to allow for degradation of ATP eventually released during the washes.
The ectonucleotidase inhibitor ARL67156 (300 μmol/L) was applied to each well. When indicated, ^10Panx1 (300 μmol/L) or the peptides analog to intracellular regions of Panx1 (3 μmol/L) were added along with the ARL67156. After a 30 minute incubation at 37° C. with the inhibitor(s), phenylephrine (100 μmol/L) or equivalent volume of Krebs-HEPES-BSA was added and the plate was kept at 37° C. After five minutes of phenylephrine stimulation, the media surrounding the TDA or the cells was transferred to an Eppendorf tube and centrifuged for five minutes at 5,000×g to eliminate eventual cell debris. Fifty microliters of the supernatant was transferred to a white-wall 96 well plate and placed in a FluoStar Omega luminometer. The ATP concentration was measured by adding 50 μL of luciferin:luciferase reagent (ATP bioluminescence assay kit HSII; Roche), which was injected into each well and the luminescence was immediately recorded. Data are expressed as a percent increase in ATP concentration compared to unstimulated condition. Each stimulated condition was compared to unstimulated condition performed on the same day, and all experiments were performed on at least 15 wells of HEK cells or three TDAs. Data were analyzed using a Kruskall Wallis test (non-parametric one-way ANOVA) followed by Dunn's post-hoc test.
To determine if the TDA response involved release of ATP, we dissected TDAs from C57Bl/6 mice and measured the accumulation of extracellular ATP in response to various agonists in the medium (FIG. 1E, inset). The TDAs were placed in a well of a 96 well plate in Krebs-HEPES solution and treated with the ectonucleotidase inhibitor ARL67156 for 30 minutes. Next, arteries were treated with a contractile agonist for five minutes and the amount of ATP in the media surrounding the vessel was determined using the ATP bioluminescence assay kit HSII (Roche).

[3] = tested on: thoracodorsal arteries (TDA); test: tissue or blood; settings: Mus musculus
[4] = tested on: thoracodorsal arteries (TDA); test: Pressure myography: agonist-induced constriction of pressurized TDAs from C57Bl/6 mice with pannexin inhibitors or Panx1 mimetic peptides; type: cell-based, mouse; settings: for effect on phenylephrine-induced constriction of pressurized TDAs: TAT-linked peptides, C57Bl/6 TDAs
Experimental: The contractile responses of pressurized thoracodorsal arteries (TDA) were measured as previously described. Briefly, TDA were isolated and placed in cold Krebs-HEPES until cannulation in a pressure arteriograph (Danish MyoTechnology). After a 30 minute equilibration period, cumulative concentrations of contractile agonists were applied to the TDA pressurized at 80 mmHg, and the vessel was visualized with an Olympus IX-71 microscope attached to a Hamamatsu EM-CCD camera coupled to Slidebook imaging software. […] Lastly, maximal diameter was measured at the end of each experiment in calcium-free Krebs-HEPES supplemented with EGTA (1 mmol/L) and sodium nitroprusside (10 μmol/L). In cases where the vessels were not constricting to the contractile agonist, their viability was assessed by applying 40 mM KCl and only TDA reaching 30% of the maximal diameter were considered for analysis. The contractile responses, as well as the basal tone, are expressed as a percentage of the maximal diameter.
Using pressure arteriography on TDA dissected from C57Bl/6 mice (as described; and aortic ring contraction, as described), we measured the effect of pannexin inhibitors, probenecid and 10Panx1, on the contractile response upon stimulation with different vasoconstrictors: phenylephrine (FIG. 1A), noradrenaline (also called norepinephrine) (FIG. 1B), serotonin (also known as 5-HT) (FIG. 1C) and endothelin-1 (FIG. 1D). […] In contrast, ^10Panx1 and probenecid had no effect on contraction of TDA measured in response to cumulative concentrations of serotonin or endothelin-1 (FIGS. 1C-D; Table 1).
To determine the region of Panx1 necessary for channel activation in response to α1AR stimulation, we produced short peptides derived from the intracellular regions of the Panx1 channel. We generated two peptides mimicking unique mouse Panx1 (mPanx1) sequences in the first intracellular loop (IL1 and IL2) and two peptides mimicking unique mPanx1 sequences in the C-terminal region, one in second intracellular loop (CT1) and one in the C-terminal tail (CT2) (FIG. 4A scissors indicate caspase 3 cleavage site; Table 3). All peptides also contained a TAT sequence to facilitate entry into cells and we verified the intracellular localization of each peptide by immunofluorescence detection of the TAT sequence in TDAs pre-incubated with each peptide (FIG. 7A). We tested the effect of each peptide on phenylephrine-induced contractile responses in pressurized TDAs from C57Bl/6 mice (FIGS. 4B-E). […] Note that these differences in effects of phenylephrine were similar in magnitude to those observed in arteries from SMC-specific Panx1-knockout mice and littermate controls (FIG. 2C, Table 2).

[5] = TDAs from Cre^+/Panx1^FL mice, tamoxifen-injected (SMC Panx1 knockout)
[6] = TDAs from Cre^+/Panx1^WT mice, tamoxifen-injected
[7] = TDAs from Cre^−/Panx1^FL mice, tamoxifen-injected
[8] = TDAs from Cre^−/Panx1^WT mice, tamoxifen-injected
[9] = read-out: EC50 of agonist for TDA constriction, TDAs from Cre^+/Panx1^FL mice, tamoxifen-injected (SMC Panx1 knockout)
[10] = read-out: EC50 of agonist for TDA constriction, TDAs from Cre^+/Panx1^WT mice, tamoxifen-injected
[11] = read-out: EC50 of agonist for TDA constriction, TDAs from Cre^−/Panx1^FL mice, tamoxifen-injected
[12] = read-out: EC50 of agonist for TDA constriction, TDAs from Cre^−/Panx1^WT mice, tamoxifen-injected
[13] = in presence of ^10Panx1 (300 μmol/L) or probenecid (2 mmol/L)
[14] = pannexin inhibitors, ^10Panx1 300 μmol/L, probenecid 2 mmol/L
[15] = in presence of the named peptide

Molecule: CC[C@H](C)[C@H](NC(=O)[C@H](CC(=O)O)NC(=O)[C@H](CC(C)C)NC(=O)[C@H](Cc1c[nH]cn1)NC(=O)[C@@H]1CSSC[C@H](N)C(=O)N[C@@H](CO)C(=O)N[C@H]2CSSC[C@H](NC(=O)[C@H](CCC(=O)O)NC(=O)[C@H](CCCCN)NC(=O)[C@H](CC(=O)O)NC(=O)[C@H](CCSC)NC(=O)[C@H](CC(C)C)NC(=O)[C@H](CO)NC(=O)[C@H](CO)NC2=O)C(=O)N[C@@H](C(C)C)C(=O)N[C@@H](Cc2ccc(O)cc2)C(=O)N[C@@H](Cc2ccccc2)C(=O)N1)C(=O)N[C@H](C(=O)N[C@@H](Cc1c[nH]c2ccccc12)C(=O)O)[C@@H](C)CC [Endothelin-1, endothelin-1]
EMAX of agonist for TDA constriction [1, 5]: 38.9 ± 6.90 percentage of maximal diameter
EMAX of agonist for TDA constriction [1, 6]: 42.5 ± 4.82 percentage of maximal diameter
EMAX of agonist for TDA constriction [1, 7]: 42.2 ± 6.50 percentage of maximal diameter
EMAX of agonist for TDA constriction [1, 8]: 41.8 ± 4.95 percentage of maximal diameter
EC50 [1, 5]: 30.1 ± 14.6 nM
EC50 [1, 6]: 5.64 ± 2.94 nM
EC50 [1, 7]: 3.77 ± 0.56 nM
EC50 [1, 8]: 18.4 ± 10.9 nM
ATP release from intact TDAs in response to agonist [2]: neither serotonin nor endothelin-1 promoted ATP release

EC50 [3, 9]: 50500 ± 24800 nM
EC50 [3, 10]: 6780 ± 3200 nM
EC50 [3, 11]: 10300 ± 1300 nM
EC50 [3, 12]: 6280 ± 1450 nM
Molecule: NC[C@H](O)c1ccc(O)c(O)c1 [Noradrenaline, noradrenaline]
EMAX of agonist for TDA constriction [1, 5]: 56.4 ± 5.61 percentage of maximal diameter
EMAX of agonist for TDA constriction [1, 6]: 48.2 ± 1.82 percentage of maximal diameter
EMAX of agonist for TDA constriction [1, 7]: 45.6 ± 5.40 percentage of maximal diameter
EMAX of agonist for TDA constriction [1, 8]: 41.4 ± 5.10 percentage of maximal diameter

Molecule: CCCN(CCC)S(=O)(=O)c1ccc(C(=O)O)cc1 [Probenecid]
EMAX of endothelin-1 for TDA constriction [4, 13]: 34.6 ± 4.50 percentage of maximal diameter
EMAX of noradrenaline for TDA constriction [4, 13]: 74.9 ± 3.04 percentage of maximal diameter
EMAX of phenylephrine for TDA constriction [4, 13]: 72.6 ± 3.51 percentage of maximal diameter
EMAX of serotonin for TDA constriction [4, 13]: 39.5 ± 3.29 percentage of maximal diameter
effect on contraction of TDA in response to cumulative concentrations of serotonin or endothelin-1 [4, 14]: had no effect
effect on phenylephrine- and noradrenaline-mediated contraction of TDA [4, 14]: significantly inhibited

EC50 [3, 9]: 14.2 ± 5.53 nM
EC50 [3, 10]: 40.7 ± 12.2 nM
EC50 [3, 11]: 65.2 ± 40.9 nM
EC50 [3, 12]: 23.8 ± 5.07 nM
Molecule: NCCc1c[nH]c2ccc(O)cc12 [Serotonin]
EMAX of agonist for TDA constriction [1, 5]: 38.2 ± 5.60 percentage of maximal diameter
EMAX of agonist for TDA constriction [1, 6]: 40.1 ± 4.59 percentage of maximal diameter
EMAX of agonist for TDA constriction [1, 7]: 30.4 ± 1.78 percentage of maximal diameter
EMAX of agonist for TDA constriction [1, 8]: 36.1 ± 2.68 percentage of maximal diameter
ATP release from intact TDAs in response to agonist [2]: neither serotonin nor endothelin-1 promoted ATP release

effect on phenylephrine-induced ATP release from intact TDAs ([2]; phenylephrine 100 μmol/L, ^10Panx1 300 μmol/L, peptides 3 μmol/L): no effect
Molecule: YGRKKQRRR [TAT]
effect on phenylephrine-induced constriction of pressurized TDAs [4]: no significant effect
EMAX of phenylephrine for TDA constriction [4, 15]: 32.0 ± 6.21 percentage of maximal diameter

Molecule: mPanx1 178-VGQSLWEISE-187 (SEQ ID NO: 4) linked with a TAT sequence (YGRKKQRRR) (also: linked with TAT sequence (YGRKKQRRR), end not given here; UniProt Q9JIP4 178-187, looked up, fragment) [IL1]
effect on phenylephrine-induced constriction of pressurized TDAs [4]: did not affect
EMAX of phenylephrine for TDA constriction [4, 15]: 32.3 ± 3.81 percentage of maximal diameter

Molecule: mPanx1 381-IPTSLQTKGE-390 (SEQ ID NO: 6) linked with a TAT sequence (YGRKKQRRR) (also: linked with TAT sequence (YGRKKQRRR), end not given here; UniProt Q9JIP4 381-390, looked up, fragment) [CT2]
effect on phenylephrine-induced constriction of pressurized TDAs [4]: did not affect
EMAX of phenylephrine for TDA constriction [4, 15]: 52.3 ± 4.86 percentage of maximal diameter

Source: patent US10314883B2, “Compositions and methods for regulating blood pressure” (University of Virginia Patent Foundation, priority 2015, dated 2019)
